The values below come from patent US20020013478A1, “Calanolide analogues and methods of their use” (Sarawak Medichem Pharmaceuticals,Inc., priority 1994, published 2002).

Values after ≈ are worked out from the molar mass of the structure shown. Like-named read-outs stand apart in the source and are kept apart here. Where only a bound is given, the exact number is not on record here.

The subject of series [1] is HIV-1. Conditions: for Maximum Protection (%): CEM-SS MTT assay; for protecting cells against HIV infection: text summary of Table I. Background: Tetrazolium dyes change colour on reduction, which living cells bring about.
Series [2] relates to HIV-1. The series is described as follows: microbe, parasite or virus in culture. Conditions: Human immunodeficiency virus 1, CEM-SS.
For series [3], the system named is CEM-SS cells. The series is described as follows: CEM-SS MTT assay, cytotoxicity (Table I). The series is classed as cell-based, human. Conditions: Homo sapiens.
The test system of series [4] is G910-6 HIV viral strain. Description: In vitro MTT assay, AZT-resistant isolate (Example 37, FIGS. 1). To be noted: G910-6 strain, FIGS. 1(a)-1(e).
Series [5] deals with EBV. The series is described as follows: EBV assay: superinfection of Raji or Daudi cells with P3HR-1, immunofluorescence for EA and VCA. The series is classed as cell-based, Epstein-Barr virus. Conditions: Table II. From the text:
There are two prototypes of infectious EBV. One is exemplified by the virus derived from supernatant fluids of the P3HR-1cell line. This cell line produces nontransforming virus that causes the production of early antigen (EA) after primary infection or superinfection of B cell lines. The other prototype is exemplified by the B-95-8 virus. This virus immortalized cord blood lymphocytes and induced tumors in marmosets.
The virus used in our assays is P3HR-1.
Ramos is an exceptional B cell line derived from Burkitt's lymphoma tumor but containing no detectable EBV genome copies and is EBNA negative. Ramos/AW was obtained by in vitro infection of Ramos with the P3HR-1 virus and contains one resident EBV genome copy/cell. Raji is a Burkitt's lymphoma cell line containing 60 EBV genomes/cell, and will be the primary cell used for screening antiviral activity against EBV EA expression. Daudi is a low level producer that contains 152 EBV genome copies/cell. It spontaneously expresses EBV EA in 0.25%-0.5% of the cells. It will be used in follow-up studies to confirm activity. These cell lines respond to superinfection by EBV by expressing EA(D), EA(R), and VCA. All cell lines are maintained in RPMI-1640 medium supplemented by 10% FCS, L-glutamine and 100 μg/mL gentamicin. The cultures are fed twice weekly and the cell concentration adjusted to 3×10^5/mL. The cells are kept at 37° C. in a humidified atmosphere with 5% CO2.
Cells are infected with the P3HR-1 strain of EBV and the drugs to be tested are added after adsorption (45 minutes at 37° C.) and washing of the cell cultures. The cultures are incubated for two days in complete medium to allow viral gene expression. Following the 48 hr incubation period, the number of cells of each sample are counted and smears made. Monoclonal antibodies to the different EA components and VCA are then added to the cells incubated and washed. This is followed by a fluorescein conjugated rabbit anti-mouse Ig antibody; and the number of fluorescence positive cells in the smears are counted. The total number of cells in the cultures positive for EA or VCA are then calculated and compared.

Series [6] deals with HBV. Description: HBV replication in cultures of 2.2.15 cells, extracellular HBV virion DNA (primary assay). To be noted: read-out: HBV EC50.
In series [7] the test system is human T-lymphoblastic cells (CEM-SS). To be noted: cited from earlier work.
Series [8] concerns pyridinone-resistant A17 virus. Conditions: cited from earlier work.
Series [9] deals with HCMV. Description: HCMV semi-automated CPE-inhibition assay in human foreskin fibroblast cells. Type of series: cell-based, human cytomegalovirus. Conditions: Table II.
Series [10] concerns human foreskin fibroblast cells. Description: Toxicity run with the HCMV assay, human foreskin fibroblast cells. The series is classed as cell-based. Conditions: Table II. Here is the method:
[table] […] The media from the wells is then aspirated and 2 mL of each drug concentration is then added to each well. The cells are then incubated in a CO2 incubator at 37° C. for 72 h. At the end of this time, the media-drug solution is removed and the cells washed. […] The cell-media mixture is then pipetted up and down vigorously to break up the cell suspension, and 0.2 mL of the mixture is added to 9.8 mL of Isoton III and counted using a Coulter Counter. Each sample is counted three times with three replicate wells per sample. The procedure for plating cells and adding drug is the same as for the MTT Assay. After drug addition, the plates are incubated for seven days in a CO2 incubator at 37° C. […] This is incubated in the CO2 incubator for one hour. The dye is aspirated and the cells are washed using a Nunc Plate Washer. […] The plates are rotated for 15 minutes and the optical densities are read at 550 nm on a plate reader.

Series [11] has as its system AZT-resistant G-9106 strain of HIV. Conditions: cited from earlier work.
The test system of series [12] is Raji or Daudi cells. The series is described as follows: Toxicity run with the EBV assay. Type of series: cell-based, human. Conditions: Table II. The text has this: IC50 (50% inhibitory concentration) is the concentration required to inhibit cell proliferation by 50%
Series [13] has as its system 2.2.15 cells. Description: Toxicity in 2.2.15 cells, neutral red dye uptake. Type of series: cell-based, human. To be noted: Table II, read-out: HBV IC50. Here is the method: Cells of 2.2.15 were grown to confluence in 96-well flat-bottomed tissue culture plates and treated with compounds (in 0.2 mL culture medium/well) as described above. Four concentrations of each compound were assayed, each in triplicate cultures, in 3- to 10-fold steps. Untreated control cultures were maintained on each 96-well plate. On each 96-well plate, wells containing no cells were used to correct for light scattering.

For series [14], the system named is HIV-1. Conditions: cited from earlier work.
Series [15] concerns H112-2 HIV viral strain. Description: In vitro MTT assay, isolate not pre-treated with AZT (Example 37, FIGS. 2). Conditions: H112-2 strain; FIGS. 2(a)-2(e).
For series [16], the system named is uninfected cells (MT-2, CEM-SS). Description: MTT cytotoxicity on uninfected cells (Example 37). The series is classed as cell-based, human.

As a reminder, the melting point is the temperature, or range, at which the solid turns liquid. Usually EC50 stands for the concentration that produces a half-maximal response. The IC50 is the midpoint of a concentration-inhibition curve. Molecule `CCCc1cc(=O)oc2c(C(=O)[C@@H](C)[C@@H](C)O)c(O)c3c(c12)OC(C)(C)C=C3` (relative stereo) [(±)-8a, 6,6-Dimethyl-9-hydroxy-10-[2(S*)-methyl-3(R*)-hydroxybutyro-]4-propyl-2H,6H-benzo[1,2-b:3,4b′]dipyran-2-one] registered a melting point of 66 to 67 °C. Also, in [1], the “Maximum Protection (%)” value is recorded as 84% and the “protecting cells against HIV infection” value is given as “highly efficacious”. Further, in [2], the midpoint of the response, the EC50, lay at 6.16 µM. For the same molecule, the half-maximal inhibitory concentration (IC50) in series [3] amounted to 23.8 µM.

As to `CCCc1cc(=O)oc2c(C(=O)[C@@H](C)[C@H](C)O)c(O)c3c(c12)OC(C)(C)C=C3` (relative stereo) [(±)-8b, 6,6-Dimethyl-9-hydroxy-10-12(S*)-methyl-3(S*)-hydroxybutyro]4-propyl-2H,6H-benzo[1,2-b:3,4-b′]dipyran-2-one], the melting point was found to be 115 °C. In series [1], the “Maximum Protection (%)” value amounted to 81% and the “protecting cells against HIV infection” value is on record as “highly efficacious”. In [2], this molecule registered an EC50 of 2.28 µM. This molecule gave an IC50 in series [3] of 21.5 µM.

Turning to `CCCc1cc(=O)oc2c3c(c4c(c12)OC(C)(C)C=C4)O[C@H](C)[C@@H](C)[C@@H]3O` [(+)-1, (+)-Calanolide A], in [4], the “antiviral effect (reducing viral CPE)” value was “effective in reducing viral CPE”. Moreover, the EC50 in series [5] (human gammaherpesvirus 4) is more than 50 µg/mL; in series [6] (Hepatitis B virus), more than 2.6 µM; in series [9] (Human betaherpesvirus 5, Fibroblast), more than 20 µg/mL; in series [14] (HIV-1 replication in CEM-SS cells) it was 0.1 µM. In addition, the IC50 in [7] was 20 µM; in [10] (Homo sapiens, Fibroblast), 86.2 µg/mL (≈ 233 µM); in [12] (Homo sapiens), more than 50 µg/mL; in series [13] (Homo sapiens) it was 175 µM. Moreover, the “activity against pyridinone-resistant A17 virus” value in series [8] was “active”. For the same molecule, the “activity against AZT-resistant G-9106 strain of HIV” value in [11] is “active”. The “protection against the cytopathic effects of HIV-1” value in series [14] (down to a concentration of 0.1 μM) was 100%.

In the case of `CCCc1cc(=O)oc2c3c(c4c(c12)OC(C)(C)C=C4)O[C@@H](C)[C@H](C)[C@H]3O` [(−)-1, (-)-Calanolide A], the “antiviral effect (reducing viral CPE)” value in series [4] and in [15] was “very little antiviral effect” in each case. Further, in [5], the “EBV EC50” value was more than 100 µg/mL. Further, the 50% effective concentration (EC50) in series [6] (Table II) is more than 30 µM. Also, the “HCMV EC50” value in series [9] was more than 20 µg/mL. Further, in series [10], the “HCMV IC50” value is 80.3 µg/mL. The “EBV IC50” value in [12] was more than 100 µg/mL. Moreover, in series [13], the 50% inhibitory concentration (IC50) worked out at 173 µM. Also, the toxicity entry in series [16] (FIGS. 2(a)-2(e)) is reported as “relatively non-toxic”; in series [16] (at concentrations of 1 μg/mL, FIGS. 1(a)-1(e)), “relatively non-toxic”.
